Laboratory results as given in PMC12090182, “Repurposing of the RIPK1-Selective Benzo[1,4]oxazepin-4-one Scaffold for the Development of a Type III LIMK1/2 Inhibitor” (ACS Chemical Biology, 2025).
Read-outs that look alike come from different tables or passages of the source.

Experiments:
Format in all cases: binding
[1] = biological target: ABL1(F317I)-nonphosphorylated (Homo sapiens, UniProt P00519, F317I); assay: biochemical; conditions: read-out: Percent Control
[2] = biological target: ABL1(T315I)-nonphosphorylated (Homo sapiens, UniProt P00519, T315I); assay: biochemical; conditions: read-out: Percent Control
FLT3(ITD,F691L) = conditions: compound concentration 100 nM; Entrez FLT3
EGFR(L747-T751del,Sins) = tested on: EGFR(L747-T751del,Sins)
BTK2 = BTK2 (Homo sapiens, UniProt Q06187); assay: scanMAX KINOMEscan (Eurofins)
Chain of BTK2 (Q06187 whole entry): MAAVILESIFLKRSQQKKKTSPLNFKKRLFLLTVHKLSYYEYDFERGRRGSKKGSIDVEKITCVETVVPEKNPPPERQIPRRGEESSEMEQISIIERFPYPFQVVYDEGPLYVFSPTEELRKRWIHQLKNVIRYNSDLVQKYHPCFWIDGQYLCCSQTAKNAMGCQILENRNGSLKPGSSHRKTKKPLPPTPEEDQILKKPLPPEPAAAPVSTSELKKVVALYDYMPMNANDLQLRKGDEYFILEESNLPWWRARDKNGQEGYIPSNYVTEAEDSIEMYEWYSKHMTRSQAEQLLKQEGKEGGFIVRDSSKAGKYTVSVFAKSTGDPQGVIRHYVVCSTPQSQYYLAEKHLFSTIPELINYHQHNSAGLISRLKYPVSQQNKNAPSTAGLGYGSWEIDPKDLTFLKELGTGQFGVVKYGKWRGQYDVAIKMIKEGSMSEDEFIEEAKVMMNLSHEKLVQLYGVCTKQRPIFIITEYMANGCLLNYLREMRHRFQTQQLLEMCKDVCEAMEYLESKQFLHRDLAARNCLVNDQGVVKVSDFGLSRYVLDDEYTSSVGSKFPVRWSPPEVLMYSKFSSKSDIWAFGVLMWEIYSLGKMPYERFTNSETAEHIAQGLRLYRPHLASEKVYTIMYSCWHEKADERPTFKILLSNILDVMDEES

ICK = ICK (Homo sapiens, UniProt Q9UPZ9); assay: scanMAX KINOMEscan (Eurofins); conditions: 1000 nM, read-out: Percent Control
From the text: (§1) Supplement cb5c00097_si_002.xlsx, sheet "Table S6 (Eurofins Selectivity)" | column: Percent Control

SYK = SYK (Homo sapiens, UniProt P43405); assay: scanMAX KINOMEscan (Eurofins); conditions: 1000 nM, read-out: Percent Control
From the text: as §1

DDR2 = DDR2 (Homo sapiens, UniProt Q16832); assay: scanMAX KINOMEscan (Eurofins); conditions: 1000 nM, read-out: Percent Control
From the text: as §1

MAP3K4 = MAP3K4 (Homo sapiens, UniProt Q9Y6R4); assay: scanMAX KINOMEscan (Eurofins); conditions: 1000 nM, read-out: Percent Control
From the text: as §1

STK36 = STK36 (Homo sapiens, UniProt Q9NRP7); assay: scanMAX KINOMEscan (Eurofins); conditions: 1000 nM, read-out: Percent Control
From the text: as §1

CAMK1 = CAMK1 (Homo sapiens, UniProt Q14012); assay: scanMAX KINOMEscan (Eurofins); conditions: read-out: Percent Control
Chain of CAMK1 (Q14012 whole entry): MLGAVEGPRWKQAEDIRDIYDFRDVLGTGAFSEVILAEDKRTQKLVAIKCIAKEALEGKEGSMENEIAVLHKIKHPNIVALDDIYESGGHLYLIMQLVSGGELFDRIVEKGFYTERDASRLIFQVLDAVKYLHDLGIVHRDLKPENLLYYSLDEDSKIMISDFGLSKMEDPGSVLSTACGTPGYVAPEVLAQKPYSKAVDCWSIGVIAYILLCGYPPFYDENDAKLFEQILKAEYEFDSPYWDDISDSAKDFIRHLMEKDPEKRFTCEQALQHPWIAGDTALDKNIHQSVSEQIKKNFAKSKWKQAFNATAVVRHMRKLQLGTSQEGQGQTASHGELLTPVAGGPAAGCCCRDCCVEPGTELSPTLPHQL
From the text: as §1

ABL2 = ABL2 (Homo sapiens, UniProt P42684); assay: scanMAX KINOMEscan (Eurofins); conditions: read-out: Percent Control
Chain of ABL2 (P42684 whole entry): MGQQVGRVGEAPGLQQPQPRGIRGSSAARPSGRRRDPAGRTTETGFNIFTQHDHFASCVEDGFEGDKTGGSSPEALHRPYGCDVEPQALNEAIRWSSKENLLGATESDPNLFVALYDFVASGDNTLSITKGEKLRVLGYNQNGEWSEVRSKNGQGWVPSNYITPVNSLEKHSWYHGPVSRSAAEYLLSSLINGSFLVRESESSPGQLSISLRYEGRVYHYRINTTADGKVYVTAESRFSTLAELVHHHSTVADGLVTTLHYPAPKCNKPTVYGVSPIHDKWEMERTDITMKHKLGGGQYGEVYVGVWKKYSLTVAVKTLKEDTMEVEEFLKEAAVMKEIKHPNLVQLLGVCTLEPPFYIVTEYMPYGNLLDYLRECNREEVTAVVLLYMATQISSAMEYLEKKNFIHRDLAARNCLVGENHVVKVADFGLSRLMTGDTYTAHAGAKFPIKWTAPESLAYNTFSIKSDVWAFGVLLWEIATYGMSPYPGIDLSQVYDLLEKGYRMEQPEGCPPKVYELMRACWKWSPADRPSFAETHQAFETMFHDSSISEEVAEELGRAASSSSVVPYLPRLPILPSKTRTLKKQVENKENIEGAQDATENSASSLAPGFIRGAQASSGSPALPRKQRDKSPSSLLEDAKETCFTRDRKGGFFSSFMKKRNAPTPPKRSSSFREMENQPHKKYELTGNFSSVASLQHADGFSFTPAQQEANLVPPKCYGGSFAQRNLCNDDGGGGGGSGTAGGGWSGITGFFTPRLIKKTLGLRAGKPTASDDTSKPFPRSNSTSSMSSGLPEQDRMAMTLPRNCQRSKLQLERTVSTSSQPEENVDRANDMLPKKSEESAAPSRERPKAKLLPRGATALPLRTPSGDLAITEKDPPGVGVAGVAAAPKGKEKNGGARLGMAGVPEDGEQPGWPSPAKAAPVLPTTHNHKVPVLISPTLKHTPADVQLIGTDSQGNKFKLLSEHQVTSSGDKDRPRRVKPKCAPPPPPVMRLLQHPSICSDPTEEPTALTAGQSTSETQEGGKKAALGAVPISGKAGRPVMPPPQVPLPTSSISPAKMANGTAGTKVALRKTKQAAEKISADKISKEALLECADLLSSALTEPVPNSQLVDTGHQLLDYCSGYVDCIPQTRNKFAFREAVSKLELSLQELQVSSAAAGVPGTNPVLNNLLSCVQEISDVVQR
From the text: as §1

SNARK = SNARK (Homo sapiens, UniProt Q9H093); assay: scanMAX KINOMEscan (Eurofins); conditions: 1000 nM, read-out: Percent Control
From the text: as §1

CAMK2D = CAMK2D (Homo sapiens, UniProt Q13557); assay: scanMAX KINOMEscan (Eurofins); conditions: 1000 nM, read-out: Percent Control
From the text: as §1

MEK2 = MEK2 (Homo sapiens, UniProt P36507); assay: scanMAX KINOMEscan (Eurofins); conditions: compound concentration 100 nM; Entrez MAP2K2; read-out: Percent Control
From the text: as §1

YES = YES (Homo sapiens, UniProt P07947); assay: scanMAX KINOMEscan (Eurofins); conditions: 1000 nM, read-out: Percent Control
From the text: as §1

MAK = MAK (Homo sapiens, UniProt P20794); assay: scanMAX KINOMEscan (Eurofins); conditions: compound concentration 100 nM; Entrez MAK; read-out: Percent Control
From the text: as §1

WNK3 = WNK3 (Homo sapiens, UniProt Q9BYP7); assay: scanMAX KINOMEscan (Eurofins); conditions: 1000 nM, read-out: Percent Control
From the text: as §1

TSSK3 = TSSK3 (Homo sapiens, UniProt Q96PN8); assay: scanMAX KINOMEscan (Eurofins); conditions: compound concentration 100 nM; Entrez TSSK3; read-out: Percent Control
From the text: as §1

MKNK1 = MKNK1 (Homo sapiens, UniProt Q9BUB5); assay: scanMAX KINOMEscan (Eurofins); conditions: 1000 nM, read-out: Percent Control
From the text: as §1

DCAMKL2 = DCAMKL2 (Homo sapiens, UniProt Q8N568); assay: scanMAX KINOMEscan (Eurofins); conditions: 1000 nM, read-out: Percent Control
From the text: as §1

MERTK = MERTK (Homo sapiens, UniProt Q12866); assay: scanMAX KINOMEscan (Eurofins); conditions: 1000 nM, read-out: Percent Control
From the text: as §1

FLT3 = FLT3 (Homo sapiens, UniProt P36888); assay: scanMAX KINOMEscan (Eurofins); conditions: read-out: Percent Control
Chain of FLT3 (P36888 27-993): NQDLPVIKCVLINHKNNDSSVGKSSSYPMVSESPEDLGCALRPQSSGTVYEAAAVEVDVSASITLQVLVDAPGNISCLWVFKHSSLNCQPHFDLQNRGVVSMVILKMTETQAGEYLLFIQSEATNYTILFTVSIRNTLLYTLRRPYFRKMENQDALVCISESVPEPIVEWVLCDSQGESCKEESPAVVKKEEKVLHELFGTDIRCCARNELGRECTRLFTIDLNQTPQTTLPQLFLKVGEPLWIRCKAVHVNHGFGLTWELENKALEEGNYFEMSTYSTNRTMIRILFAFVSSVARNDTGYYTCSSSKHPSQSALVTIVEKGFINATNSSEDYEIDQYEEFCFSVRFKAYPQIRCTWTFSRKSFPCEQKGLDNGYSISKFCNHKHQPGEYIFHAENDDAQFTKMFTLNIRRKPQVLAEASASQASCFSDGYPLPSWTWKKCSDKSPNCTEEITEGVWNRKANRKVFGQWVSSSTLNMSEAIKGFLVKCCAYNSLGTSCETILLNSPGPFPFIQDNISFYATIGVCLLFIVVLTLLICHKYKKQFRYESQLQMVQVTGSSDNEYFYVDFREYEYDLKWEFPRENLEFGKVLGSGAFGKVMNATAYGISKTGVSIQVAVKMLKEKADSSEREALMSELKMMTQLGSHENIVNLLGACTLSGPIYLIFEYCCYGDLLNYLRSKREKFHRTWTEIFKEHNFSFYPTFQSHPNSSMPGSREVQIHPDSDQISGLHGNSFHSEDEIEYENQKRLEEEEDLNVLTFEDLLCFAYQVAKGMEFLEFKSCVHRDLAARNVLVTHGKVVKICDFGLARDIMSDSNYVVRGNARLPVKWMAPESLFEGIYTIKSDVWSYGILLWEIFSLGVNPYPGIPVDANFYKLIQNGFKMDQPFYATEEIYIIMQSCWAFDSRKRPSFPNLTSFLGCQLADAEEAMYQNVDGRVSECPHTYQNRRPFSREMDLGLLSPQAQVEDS
From the text: as §1

CAMK2A = CAMK2A (Homo sapiens, UniProt Q9UQM7); assay: scanMAX KINOMEscan (Eurofins); conditions: 1000 nM, read-out: Percent Control
From the text: as §1

FES = FES (Homo sapiens, UniProt P07332); assay: scanMAX KINOMEscan (Eurofins); conditions: read-out: Percent Control
Chain of FES (P07332 whole entry): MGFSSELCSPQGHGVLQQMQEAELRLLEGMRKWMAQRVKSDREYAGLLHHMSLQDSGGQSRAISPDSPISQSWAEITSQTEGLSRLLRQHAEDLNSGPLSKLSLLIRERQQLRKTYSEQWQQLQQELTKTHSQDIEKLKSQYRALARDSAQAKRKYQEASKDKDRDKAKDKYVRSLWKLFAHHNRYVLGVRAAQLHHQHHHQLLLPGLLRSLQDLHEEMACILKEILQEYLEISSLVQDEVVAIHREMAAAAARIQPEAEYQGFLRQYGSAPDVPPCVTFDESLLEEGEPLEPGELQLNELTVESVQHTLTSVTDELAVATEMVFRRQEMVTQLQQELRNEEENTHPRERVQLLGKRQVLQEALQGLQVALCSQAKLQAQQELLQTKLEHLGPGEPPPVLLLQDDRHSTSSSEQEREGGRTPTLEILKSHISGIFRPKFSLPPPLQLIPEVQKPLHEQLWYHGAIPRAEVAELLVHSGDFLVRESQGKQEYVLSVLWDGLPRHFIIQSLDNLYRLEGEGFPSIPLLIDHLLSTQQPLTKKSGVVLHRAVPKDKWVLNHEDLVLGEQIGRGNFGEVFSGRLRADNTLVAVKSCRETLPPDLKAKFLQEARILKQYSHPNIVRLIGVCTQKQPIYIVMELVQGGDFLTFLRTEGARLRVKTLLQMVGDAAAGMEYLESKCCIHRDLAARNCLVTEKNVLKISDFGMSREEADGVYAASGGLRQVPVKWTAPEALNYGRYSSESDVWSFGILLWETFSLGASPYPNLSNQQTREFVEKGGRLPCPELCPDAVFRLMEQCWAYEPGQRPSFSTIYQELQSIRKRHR
From the text: as §1

p38-delta = p38-delta (Homo sapiens, UniProt O15264); assay: scanMAX KINOMEscan (Eurofins); conditions: compound concentration 100 nM; Entrez MAPK13; read-out: Percent Control
From the text: as §1

PIM1 = PIM1 (Homo sapiens, UniProt P11309); assay: scanMAX KINOMEscan (Eurofins); conditions: 1000 nM, read-out: Percent Control
From the text: as §1

JNK2 = JNK2 (Homo sapiens, UniProt P45984); assay: scanMAX KINOMEscan (Eurofins); conditions: 1000 nM, read-out: Percent Control
From the text: as §1

BMPR2 = BMPR2 (Homo sapiens, UniProt Q13873); assay: scanMAX KINOMEscan (Eurofins); conditions: read-out: Percent Control
Chain of BMPR2 (Q13873 27-1038): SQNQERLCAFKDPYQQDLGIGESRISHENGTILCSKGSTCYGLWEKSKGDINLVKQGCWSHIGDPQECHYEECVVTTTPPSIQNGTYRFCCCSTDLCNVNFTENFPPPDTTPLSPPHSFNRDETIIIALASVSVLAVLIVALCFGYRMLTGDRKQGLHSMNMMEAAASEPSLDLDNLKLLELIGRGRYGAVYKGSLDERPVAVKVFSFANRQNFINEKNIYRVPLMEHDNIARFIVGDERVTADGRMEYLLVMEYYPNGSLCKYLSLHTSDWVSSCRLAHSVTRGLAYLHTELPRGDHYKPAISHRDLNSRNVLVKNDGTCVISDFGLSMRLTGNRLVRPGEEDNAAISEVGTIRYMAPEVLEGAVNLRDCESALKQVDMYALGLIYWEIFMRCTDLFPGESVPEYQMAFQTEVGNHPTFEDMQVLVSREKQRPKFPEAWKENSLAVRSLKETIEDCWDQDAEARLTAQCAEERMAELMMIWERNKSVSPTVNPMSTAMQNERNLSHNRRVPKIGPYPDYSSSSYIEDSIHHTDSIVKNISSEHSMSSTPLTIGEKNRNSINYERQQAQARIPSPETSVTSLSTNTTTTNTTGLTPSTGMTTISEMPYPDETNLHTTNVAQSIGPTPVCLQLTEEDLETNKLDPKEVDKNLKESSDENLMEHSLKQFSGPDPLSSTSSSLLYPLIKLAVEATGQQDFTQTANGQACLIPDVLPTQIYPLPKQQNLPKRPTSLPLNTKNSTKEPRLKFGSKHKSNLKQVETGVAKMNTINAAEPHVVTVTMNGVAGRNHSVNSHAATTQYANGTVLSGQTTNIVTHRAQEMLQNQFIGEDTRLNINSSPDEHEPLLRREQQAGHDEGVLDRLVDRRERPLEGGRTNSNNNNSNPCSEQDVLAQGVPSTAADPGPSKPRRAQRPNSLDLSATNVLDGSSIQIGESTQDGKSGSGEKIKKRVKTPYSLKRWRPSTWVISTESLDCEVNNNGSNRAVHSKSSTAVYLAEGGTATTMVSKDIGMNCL
From the text: as §1

NDR2 = NDR2 (Homo sapiens, UniProt Q9Y2H1); assay: scanMAX KINOMEscan (Eurofins); conditions: 1000 nM, read-out: Percent Control
From the text: as §1

ERBB4 = ERBB4 (Homo sapiens, UniProt Q15303); assay: scanMAX KINOMEscan (Eurofins); conditions: 1000 nM, read-out: Percent Control
From the text: as §1

VRK2 = VRK2 (Homo sapiens, UniProt Q86Y07); assay: scanMAX KINOMEscan (Eurofins); conditions: compound concentration 100 nM; Entrez VRK2; read-out: Percent Control
From the text: as §1

CSK = CSK (Homo sapiens, UniProt P41240); assay: scanMAX KINOMEscan (Eurofins); conditions: 1000 nM, read-out: Percent Control
From the text: as §1

MARK4 = MARK4 (Homo sapiens, UniProt Q96L34); assay: scanMAX KINOMEscan (Eurofins); conditions: compound concentration 100 nM; Entrez MARK4; read-out: Percent Control
From the text: as §1

[3] = biological target: ABL1(F317I)-phosphorylated (Homo sapiens, UniProt P00519, F317I); assay: biochemical; conditions: compound concentration 100 nM; Entrez ABL1; read-out: Percent Control
[4] = biological target: ABL1(Q252H)-nonphosphorylated (Homo sapiens, UniProt P00519, Q252H); assay: biochemical; conditions: read-out: Percent Control

In the case of `CN1C(=O)[C@@H](N2CCc3c(nn(Cc4ccccc4)c3C(N)=O)C2=O)COc2cc(Cl)ccc21` [Compound 10, (S)-2-benzyl-6-(8-chloro-5-methyl-4-oxo-2,3,4,5-tetrahydrobenzo[b][1,4]oxazepin-3-yl)-7-oxo-4,5,6,7-tetrahydro-2H-pyrazolo[3,4-c]pyridine-3-carboxamide], the remaining activity at 1 µM [1] is reported as 69%, the remaining activity at 1 µM [2] is reported as 73% and the “Percent Control” value (FLT3(ITD,F691L)) is reported as 100. For the same molecule, the “Percent Control” value (EGFR(L747-T751del,Sins)) was 97%, the remaining binding at 1 µM (BTK2; BTK2, 1 μM, read-out: POC (Top Hits @ 1 μM)) was 55% and the remaining binding at 0.1 µM (BTK2; BTK (Entrez BTK), 100 nM, read-out: Percent Control) was 62%. It also gave a remaining binding at 1 µM (BTK2; BTK, 1000 nM, read-out: Percent Control) of 55%, a remaining binding at 1 µM (ICK) of 85% and a remaining binding at 1 µM (SYK) of 95%. The remaining binding at 1 µM (DDR2) was 86%, the remaining binding at 1 µM (MAP3K4) was 92% and the remaining binding at 1 µM (STK36) was 80%. The remaining binding at 1 µM (CAMK1; 1000 nM) was 100%, the remaining binding at 0.1 µM (CAMK1; compound concentration 100 nM, Entrez CAMK1) was 90% and the remaining binding at 1 µM (ABL2; 1000 nM) was 100%. It also gave a remaining binding at 0.1 µM (ABL2; compound concentration 100 nM, Entrez ABL2) of 100%, a remaining binding at 1 µM (SNARK) of 92% and a remaining binding at 1 µM (CAMK2D) of 89%. For the same molecule, the remaining binding at 0.1 µM (MEK2) was 94%, the remaining binding at 1 µM (YES) was 90% and the remaining binding at 0.1 µM (MAK) was 94%. It also gave a remaining binding at 1 µM (WNK3) of 69%, a remaining binding at 0.1 µM (TSSK3) of 100% and a remaining binding at 1 µM (MKNK1) of 77%. The remaining binding at 1 µM (DCAMKL2) was 83%, the remaining binding at 1 µM (MERTK) was 98% and the remaining binding at 1 µM (FLT3; 1000 nM) was 100%. It also gave a remaining binding at 0.1 µM (FLT3; compound concentration 100 nM, Entrez FLT3) of 96%, a remaining binding at 1 µM (CAMK2A) of 90% and a remaining binding at 1 µM (FES; 1000 nM) of 100%. The remaining binding at 0.1 µM (FES; compound concentration 100 nM, Entrez FES) was 100%, the remaining binding at 0.1 µM (p38-delta) was 79% and the remaining binding at 1 µM (PIM1) was 78%. The remaining binding at 1 µM (JNK2) was 89%, the remaining binding at 1 µM (BMPR2; 1000 nM) was 100% and the remaining binding at 0.1 µM (BMPR2; compound concentration 100 nM, Entrez BMPR2) was 90%. For the same molecule, the remaining binding at 1 µM (NDR2) was 96%, the remaining binding at 1 µM (ERBB4) was 87% and the remaining binding at 0.1 µM (VRK2) was 77%. It also gave a remaining binding at 1 µM (CSK) of 97%, a remaining binding at 0.1 µM (MARK4) of 76% and a remaining activity at 0.1 µM [3] of 91%. The remaining activity at 1 µM [4] was 79%.
